Test system: Plasmodium falciparum
Assay: Antiplasmodial activity against Plasmodium falciparum NF54 infected in human erythrocytes measured after 48 hrs by [3H]hypoxanthine incorporation assay
Format: functional, organism-based
Conditions: NF54, Erythrocyte

IC50: 219 nM
Structure (SMILES): FC1CN(CCc2ccc(-c3noc(C(F)(F)F)n3)cc2)CCC1Nc1nc2ccccc2[nH]1 (stereo unspecified)
